ChEMBL document CHEMBL4477222, “Discovery of Novel Thiophene-Based, Thumb Pocket 2 Allosteric Inhibitors of the Hepatitis C NS5B Polymerase with Improved Potency and Physicochemical Profiles” (J Med Chem, 2016)

Key:
[1] = Cytotoxicity against human W11.8 cells assessed as reduction in cell viability after 4 days; assay type: cell-based
[2] = Cytotoxicity against human Huh7ET cells assessed as reduction in cell viability after 4 days; assay type: cell-based
[3] = target: RNA-directed RNA polymerase (Hepacivirus hominis, UniProt O39930, M423I); assay: Inhibition of HCV genotype 1a NS5B M423I mutant; set-up: species or system Hepatitis C virus subtype 1a
[4] = target: RNA-directed RNA polymerase (Hepacivirus hominis, UniProt O39930, L419M); assay: Inhibition of HCV genotype 1a NS5B L419M mutant; set-up: species or system Hepatitis C virus subtype 1a
[5] = target: RNA-directed RNA polymerase (Hepacivirus hominis, UniProt O39930, M423T); assay: Inhibition of HCV genotype 1a NS5B M423T mutant; set-up: species or system Hepatitis C virus subtype 1a
Nonstructural protein 5A = Nonstructural protein 5A (Hepatitis C virus, UniProt Q5L478); assay: Inhibition of HCV genotype 2a NS5A; set-up: species or system Hepatitis C virus subtype 2a
[6] = target: RNA-directed RNA polymerase (Hepacivirus hominis, UniProt O39930, M423V); assay: Inhibition of HCV genotype 1a NS5B M423V mutant; set-up: species or system Hepatitis C virus subtype 1a
Hepatitis C virus = assay: Antiviral activity against HCV genotype 1 infected in human assessed as log10 reduction in viral load at 500 mg[…] bid for 3 days measured on day 4 post treatment; assay type: functional, Hepacivirus hominis
[7] = target: Nonstructural protein 5A (Hepatitis C virus) (UniProt Q5L478); assay: Ratio of EC50 for HCV genotype 1b NS5A infected in human l389lucubi- neo/NS3-375.1-containing Huh7ET cells in presence of 40% human serum to EC50 for HCV genotype 1b NS5A infected in human l389lucubi- neo/NS3-375.1-containing Huh7ET cells; conditions: Hepatitis C virus subtype 1b
[8] = target: RNA-directed RNA polymerase (Hepacivirus hominis, UniProt O39930, L419I); assay: Inhibition of HCV genotype 1a NS5B L419I mutant; set-up: species or system Hepatitis C virus subtype 1a

## C[C@H](C(=O)N(C)C)N(c1cc(C#CC(C)(C)C)sc1C(=O)O)C(=O)[C@H]1CC[C@H](C)CC1
[1]
  CC50 at 96 h: > 20 µM
[2]
  CC50 at 96 h: > 20 µM

## CC[C@@H](C(=O)N(C)C)N(c1cc(C#CC(C)(C)C)sc1C(=O)O)C(=O)[C@H]1CC[C@H](C)CC1
[1]
  CC50 at 96 h: > 20 µM
[2]
  CC50 at 96 h: > 20 µM

## CC(C)(C)C#Cc1cc(N(CC(=O)N2CCCCC2)C(=O)[C@H]2CC[C@H](C)CC2)c(C(=O)O)s1
[1]
  CC50 at 96 h: > 20 µM
[2]
  CC50 at 96 h: > 20 µM

## CNC(=O)CN(c1cc(C#CC(C)(C)C)sc1C(=O)O)C(=O)[C@H]1CC[C@H](C)CC1
[1]
  CC50 at 96 h: > 20 µM
[2]
  CC50 at 96 h: > 20 µM

## CN(C)CCN(C)C(=O)CN(c1cc(C#CC(C)(C)C)sc1C(=O)O)C(=O)[C@H]1CC[C@H](C)CC1
[1]
  CC50 at 96 h: > 20 µM
[2]
  CC50 at 96 h: > 20 µM

## CC(C)(C)C#Cc1cc(N(CC(=O)N2CCC(O)CC2)C(=O)[C@H]2CC[C@H](C)CC2)c(C(=O)O)s1
[1]
  CC50 at 96 h: > 20 µM
[2]
  CC50 at 96 h: > 20 µM

## CN1CCN(C(=O)CN(c2cc(C#CC(C)(C)C)sc2C(=O)O)C(=O)[C@H]2CC[C@H](C)CC2)CC1
[1]
  CC50 at 96 h: > 20 µM
[2]
  CC50 at 96 h: > 20 µM

## COC[C@@H](C(=O)N(C)C)N(c1cc(C#CC(C)(C)C)sc1C(=O)O)C(=O)[C@H]1CC[C@H](C)CC1
[1]
  CC50 at 96 h: > 20 µM
[2]
  CC50 at 96 h: > 20 µM

## CCN(CC)C(=O)CN(c1cc(C#CC(C)(C)C)sc1C(=O)O)C(=O)[C@H]1CC[C@H](C)CC1
[1]
  CC50 at 96 h: > 20 µM
[2]
  CC50 at 96 h: > 20 µM

## CCC[C@@H](C(=O)N(C)C)N(c1cc(C#CC(C)(C)C)sc1C(=O)O)C(=O)[C@H]1CC[C@H](C)CC1
[1]
  CC50 at 96 h: > 20 µM
[2]
  CC50 at 96 h: > 20 µM

## CC(C)(C)C#Cc1cc(N(C(=O)[C@H]2CC[C@H](C)CC2)[C@H]2CC[C@H](O)CC2)c(C(=O)O)s1 [LOMIBUVIR]
[1]
  CC50 at 96 h: > 20 µM
[2]
  CC50 at 96 h: > 20 µM
[3]
  EC50: 0.03 µM
[4]
  EC50: 0.32 µM
[5]
  EC50: 0.31 µM
Nonstructural protein 5A
  EC50: 8.1 µM
[6]
  EC50: 0.065 µM
Hepatitis C virus
  FC: 3.4
[7]
  Ratio EC50: 10 to 20
[8]
  EC50: 0.32 µM

## CN(C)C(=O)[C@H](CO)N(c1cc(C#CC(C)(C)C)sc1C(=O)O)C(=O)[C@H]1CC[C@H](C)CC1
[1]
  CC50 at 96 h: > 20 µM
[2]
  CC50 at 96 h: > 20 µM

## COC1CCN(C(=O)CN(c2cc(C#CC(C)(C)C)sc2C(=O)O)C(=O)[C@H]2CC[C@H](C)CC2)CC1
[1]
  CC50 at 96 h: > 20 µM
[2]
  CC50 at 96 h: > 20 µM

## CC(C)[C@@H](C(=O)N(C)C)N(c1cc(C#CC(C)(C)C)sc1C(=O)O)C(=O)[C@H]1CC[C@H](C)CC1
[1]
  CC50 at 96 h: > 20 µM
[2]
  CC50 at 96 h: > 20 µM

## CC(C)(C)C#Cc1cc(N(CC(=O)N2CCCC2)C(=O)[C@H]2CC[C@H](C)CC2)c(C(=O)O)s1
[1]
  CC50 at 96 h: > 20 µM
[2]
  CC50 at 96 h: > 20 µM

## CC(C)NC(=O)CN(c1cc(C#CC(C)(C)C)sc1C(=O)O)C(=O)[C@H]1CC[C@H](C)CC1
[1]
  CC50 at 96 h: > 20 µM
[2]
  CC50 at 96 h: > 20 µM

## CN(C)C(=O)CN(c1cc(C#CC(C)(C)C)sc1C(=O)O)C(=O)[C@H]1CC[C@H](C)CC1
[1]
  CC50 at 96 h: > 20 µM
[2]
  CC50 at 96 h: > 20 µM

## C[C@@H](C(=O)N(C)C)N(c1cc(C#CC(C)(C)C)sc1C(=O)O)C(=O)[C@H]1CC[C@H](C)CC1
[1]
  CC50 at 96 h: > 20 µM
[2]
  CC50 at 96 h: > 20 µM

## CC(C)(C)C#Cc1cc(N(CC(=O)N2CC(O)C2)C(=O)[C@H]2CC[C@H](C)CC2)c(C(=O)O)s1
[1]
  CC50 at 96 h: > 20 µM
[2]
  CC50 at 96 h: > 20 µM
